Experimental data: patent publication US4436925A, “Addition compound of dipeptide derivative and amino acid derivative” (Toyo Soda Manufacturing Co., Ltd., priority 1977, dated 1984)
Where a SMILES comes first, the peptide text is derived from it.

Legend:
[1] = times of that of sugar; cited from earlier work
[2] = Solubility in water or diluted hydrochloric acid

Compound | sweetness relative to sugar [1] | solubility ([2]; in diluted hydrochloric acid (10^-2 M) at 25° C.) | solubility ([2]; in water at 25° C.) [g/100 g water]
COC(=O)[C@H](Cc1ccccc1)NC(=O)[C@@H](N)CC(=O)O [α-L-Aspartyl-L-phenylalanine methyl ester] (H-Asp-Phe-OMe) | about 200 times | – | –
COC(=O)[C@H](Cc1ccccc1)NC(=O)[C@H](CC(=O)O)NC(=O)OCc1ccccc1 | – | 0.017 g/100 g diluted hydrochloric acid (10^-2 M) | 0.028
